Data: the NIST ThermoML archive (doi:10.1021/je200922s)
Numbers after ± are expanded uncertainties.

Details: 101.33 kPa, Liquid; for viscosity: Capillary tube (Ostwald / Ubbelohde) method; for mass density: Vibrating tube method

| viscosity (293.15 K) | mass density (293.15 K) | viscosity (298.15 K) | mass density (298.15 K) | viscosity (303.15 K) | mass density (303.15 K) | viscosity (308.15 K) | mass density (308.15 K) | viscosity (313.15 K) | mass density (313.15 K) | viscosity (318.15 K) | mass density (318.15 K) | viscosity (323.15 K) | mass density (323.15 K) | SMILES |
| --- | --- | --- | --- | --- | --- | --- | --- | --- | --- | --- | --- | --- | --- | --- |
| 1.189 ± 0.048 mPa·s | 789.831 ± 0.12 kg/m3 | 1.095 ± 0.044 mPa·s | 785.535 ± 0.13 kg/m3 | 1.003 ± 0.041 mPa·s | 781.22 ± 0.13 kg/m3 | 0.914 ± 0.037 mPa·s | 776.875 ± 0.13 kg/m3 | 0.845 ± 0.034 mPa·s | 772.48 ± 0.13 kg/m3 | 0.765 ± 0.031 mPa·s | 768.042 ± 0.14 kg/m3 | 0.704 ± 0.029 mPa·s | 762.564 ± 0.14 kg/m3 | CCO [ethanol] |
| 1.811 ± 0.074 mPa·s | 1032.31 ± 0.26 kg/m3 | 1.667 ± 0.068 mPa·s | 1027.96 ± 0.25 kg/m3 | 1.543 ± 0.063 mPa·s | 1023.52 ± 0.25 kg/m3 | 1.437 ± 0.059 mPa·s | 1019.06 ± 0.25 kg/m3 | 1.343 ± 0.055 mPa·s | 1014.61 ± 0.24 kg/m3 | 1.258 ± 0.051 mPa·s | 1010.14 ± 0.24 kg/m3 | 1.184 ± 0.048 mPa·s | 1005.68 ± 0.24 kg/m3 | CN1CCCC1=O [N-methylpyrrolidone] |

| SMILES | viscosity (293.15 K) | mass density (293.15 K) | viscosity (298.15 K) | mass density (298.15 K) | viscosity (303.15 K) | mass density (303.15 K) | viscosity (308.15 K) | mass density (308.15 K) | viscosity (313.15 K) | mass density (313.15 K) | viscosity (318.15 K) | mass density (318.15 K) | viscosity (323.15 K) | mass density (323.15 K) |
| --- | --- | --- | --- | --- | --- | --- | --- | --- | --- | --- | --- | --- | --- | --- |
| CCn1cc[n+](C)c1.O=S(=O)([N-]S(=O)(=O)C(F)(F)F)C(F)(F)F | 40.24 ± 1.6 mPa·s | 1523.28 ± 0.7 kg/m3 | 33.36 ± 1.4 mPa·s | 1518.25 ± 0.69 kg/m3 | 28.1 ± 1.1 mPa·s | 1513.23 ± 0.69 kg/m3 | 23.93 ± 0.98 mPa·s | 1508.2 ± 0.69 kg/m3 | 20.66 ± 0.85 mPa·s | 1503.16 ± 0.68 kg/m3 | 17.98 ± 0.73 mPa·s | 1498.19 ± 0.68 kg/m3 | 15.8 ± 0.65 mPa·s | 1493.33 ± 0.67 kg/m3 |
